Source: PMC8234803, “In Vitro Metabolism of Six C-Glycosidic Flavonoids from Passiflora incarnata L” (International Journal of Molecular Sciences, 2021)
Entries after “also recorded” stand apart in the source; their conditions may differ.

What was measured:
[1] = Stability testing in test buffer (HBSS pH 6.0) under assay conditions, HPLC-DAD; assay type: physicochemical; conditions: 10 µM in HBSS pH 6.0, 37 °C, 5% CO2; after 3 h of incubation
Procedure: To guarantee the stability of all test substances during the metabolism assay on Caco-2 cells, they were incubated in the test buffer under assay conditions. Test samples were collected each hour for 5 h and were measured via HPLC-DAD.
To ensure stability during the Caco-2 metabolism experiments, all test substances were dissolved in DMSO to a concentration of 20 mM and diluted to 10 µM in an appropriate volume of HBSS (pH 6.0), resulting in a DMSO concentration of less than 1%. The test solution (1 mL) was aliquoted into a 12-well Transwell® plate and incubated for 5 h in an atmosphere of 5% CO2 and 90% relative humidity at 37 °C. Test samples (100 µL) were collected after t = 0, 1, 2, 3, 4, and 5 h and measured via HPLC-DAD. The peak area of the test substance at time t = 0 h was defined as 100%, and all other peak areas were related to calculate the proportional stability. The stability was calculated as % = area/area0 × 100. Stability testing was performed on three independent days with freshly prepared solutions (n = 3).
The system consisted of the following: Elite LaChrom with an L2200 autosampler, L2130 pump, L2350 column oven, L2444 DAD, and EZChrom Elite 3.1.7 software (Hitachi, Tokyo, Japan); column: Kinetex® Biphenyl, 100 Å, 250-4.6 mm (5 µm, same material precolumn; Phenomenex, Torrance, CA, USA); injection volume 30 µL; oven temp.: 25 °C; autosampler temp.: 10 °C; detection wavelength: 340 nm; flow: 1.2 mL/min; A = H2O + 0.1% TFA, B = acetonitrile + 0.1% TFA; gradient: 0–2 min 10% B, 2–10 min 10% B → 100% B, 10–11 min 100% B → 10% B, 11–15 min 10% B.

[2] = tested on: Caco-2 cells; assay: MTT assay under metabolic conditions (cell viability); assay type: cell-based, human; conditions: 10, 25, 50, 75, 100 µM in HBSS (pH 6.0), 5 h incubation
Procedure: All six substances were tested in five different dilutions in HBSS (pH 6.0). The determined viability values of O, IO, S, IS, V, and IV are listed in the Supplementary Materials (Figure S2).
Caco-2 cells in the logarithmic growth phase were seeded in 96-well plates at a density of 3 × 10^4 cells/well and incubated at 37 °C in an atmosphere of 5% CO2 and constant moisture in an incubator. After 24 h, the cell culture medium was removed, and 100 µL of HBSS solution (negative control), 0.5% DMSO in HBSS solution (solvent control), or flavonoid samples in HBSS solution (6 flavonoids at concentrations of 10, 25, 50, 75, and 100 µM) was applied in quintuplicate and incubated for 5 h. Afterwards, the HBSS solutions were removed and replaced with an MTT solution in DMEM (0.4 mg/mL) and incubated for another 3 h at 37 °C. Then, the MTT solution was discarded, and the cells were fixed with a 10% SDS solution in PBS and stored at room temperature in the dark. After 24 h, the absorbance was measured on a Tecan microplate reader (Tecan Trading AG, Switzerland) at 560 nm. The viability rate was calculated as % = A/A0 × 100, with A as the average absorbance value of the treatment and solvent control groups and A0 as the average absorbance value of the negative control group. The assay was performed three times in pentaplicate.
The human colon adenocarcinoma cell line Caco-2 was obtained from the ATCC (American Type Culture Collection, Manassas, VA, USA). The cell line was determined to be free of mycoplasma contamination by PCR and culture from GATC Biotech AG (Konstanz, Germany). The cells were cultured in DMEM supplemented with 10% (v/v) FBS, 1% (v/v) NEAA, and 1% (v/v) antibiotics (penicillin/streptomycin) in an atmosphere of 5% CO2 and 90% relative humidity at 37 °C. The culture medium was replaced every 3 days, and the cells were split 1:5 using trypsin-EDTA once 90% confluence was obtained.

[3] = tested on: Caco-2 cell monolayer; assay: Caco-2 monolayer metabolism experiment, metabolites identified via UHPLC-DAD-MS(/MS); assay type: in vitro ADME, human; conditions: for Possible metabolite (phase II metabolite identified by MS/MS fragmentation and comparison with reference compound after enzymatic hydrolysis): glucuronidase/sulfatase cleavage, UHPLC-DAD-MS/MS; for Extent of phase I and II metabolism (in words): independent of incubation time and concentration
Procedure: To obtain information on the in vitro metabolism of the six tested C-glycosidic flavonoids in the intestine, experiments were carried out using the Caco-2 monolayer model (Figure 2). Metabolite profiles were characterized at two different concentrations (10 and 100 µM; n = 3) and after two different incubation times (3 or 5 h; n = 3) in order to determine the influence of concentration and time on the metabolism reactions that occurred. Furthermore, to analyze the distribution of the observed metabolites, samples were collected from the cell lysate and the apical and basolateral compartments. All samples of the metabolism experiments using the Caco-2 cell monolayer were analyzed using UHPLC-DAD-MS and UHPLC-DAD-MS/MS. Metabolites were identified by libraries that were prepared for each compound (Tables S1–S6). The O and IO libraries contained 67 metabolites (Tables S1 and S2), the S and IS libraries contained 106 metabolites (Tables S3 and S4), and the V and IV libraries contained 71 possible metabolites (Tables S5 and S6).
To form a confluent and differentiated monolayer, cells at passages 16–45 were seeded into the inserts of 12-well Transwell® plates at a density of 3.0 × 10^5 cells/cm^2. Afterwards, the culture medium was replaced every day, and the metabolism experiment was performed 21 days after seeding. The apical and basolateral compartments contained 0.5 and 1.5 mL of cell culture medium, respectively.
On day 21, the cell culture medium was removed from the apical and basolateral compartments, and the Caco-2 cell monolayer was washed two times with prewarmed HBSS. The Transwell® plates containing HBSS were incubated at 37 °C for 15 min to measure the transepithelial electrical resistance (TEER) value. The integrity of the cell monolayers was evaluated by TEER values between the apical and basolateral sides with the Evohm2 system (World Precision Instruments, Sarasota, FL, USA). The cell inserts were only used for the metabolism experiments if the resistance exceeded 350 Ω/cm^2. The six test substances were dissolved in DMSO to a stock solution of 20 mM. The HBSS was adjusted to pH 6.0 and 7.4 with 1 M HCl. Afterwards, the stock solutions were diluted to 10 or 100 µM in an appropriate volume of HBSS (pH 6.0) to obtain a DMSO concentration of <1%. The test solutions were added to the apical side (0.5 mL), while the basolateral side was filled with 1.5 mL of HBSS (pH 7.4). The Transwell® plates were incubated at 37 °C for 3 or 5 h, respectively. After this period, solutions from the apical and basolateral compartments were collected in separate tubes, washed twice with 500 µL of HBSS, and then collected again. The samples were lyophilized and stored at −20 °C until they were measured using UHPLC-DAD-MS. After the experiment, Transwell® inserts were apically (0.5 mL) and basolaterally (1.5 mL) filled with HBSS and warmed to 37 °C for 20 min. Then, the TEER values were measured to guarantee the integrity of the monolayer during the experiment. The experiment was performed in triplicate for each substance, concentration, and incubation time.
After the metabolism experiment, cell monolayers were washed twice with PBS and incubated with 200 µL of trypsin-EDTA for 10 min at 37 °C in an atmosphere of 5% CO2 and constant humidity in the incubator. The cells were removed from the well by pipetting up and down, and were collected in a tube. The well was washed twice with PBS (1 mL), and the wash solution was also collected in the corresponding tube. The mixture was centrifuged (1000× g rpm, 5 min), and the supernatant was discarded.

[4] = initial concentration 100 µM, 3 h, apical compartment

Row | SMILES | Stability (content relative to t = 0 h) [1] | Effect on the viability of Caco-2 cells (in words) [2] | Extent of metabolism (in words) ([3]; 10 µM, 3 and 5 h) | Metabolites of the aglycones (cleavage of the C–C glycosidic bond) ([3]; 100 µM approach) | Extent of metabolism (in words) ([3]; 100 µM, 3 and 5 h) | Possible metabolite (phase II metabolite identified by MS/MS fragmentation and comparison with reference compound after enzymatic hydrolysis) ([3]; metabolite at RT 2.514 5.107 min, m/z 527.0501) | Possible metabolite (phase II metabolite identified by MS/MS fragmentation and comparison with reference compound after enzymatic hydrolysis) ([3]; metabolite at RT 5.134 min, m/z 477.0674) | Possible metabolite (phase II metabolite identified by MS/MS fragmentation and comparison with reference compound after enzymatic hydrolysis) ([3]; metabolite at RT 5.476 min, m/z 461.0724) | Extent of phase I and II metabolism (in words) [3] | Possible metabolite detected ([3]; initial concentration 10 µM, 3 h, apical compartment) | Possible metabolite detected ([3]; initial concentration 10 µM, 3 h, basolateral compartment) | Possible metabolite detected ([3]; initial concentration 10 µM, 5 h, apical compartment) | Possible metabolite detected [3, 4] | Possible metabolite detected ([3]; initial concentration 100 µM, 3 h, basolateral compartment) | Possible metabolite detected ([3]; initial concentration 100 µM, 3 h, cell lysate) | Possible metabolite detected ([3]; initial concentration 100 µM, 5 h, apical compartment) | Possible metabolite detected ([3]; initial concentration 100 µM, 5 h, basolateral compartment) | Possible metabolite detected ([3]; initial concentration 100 µM, 5 h, cell lysate) | Phase II conjugates containing glucuronic acid or sulfates ([3]; 10 µM, 3 and 5 h) | Phase II metabolites with glucuronic acid or sulfates ([3]; 100 µM, 3 and 5 h)
1 | O=c1cc(-c2ccc(O)c(O)c2)oc2cc(O)c([C@@H]3O[C@H](CO)[C@@H](O)[C@H](O)[C@H]3O)c(O)c12 [IO, isoorientin] | approximately 100% | no significant effects at any concentration | broader ranges of phase I and II metabolites | metabolites of the corresponding aglycones apigenin and luteolin were also detected | extensive metabolism | IO-sulfate | Quercetin-glucuronide | Luteolin-glucuronide | highly metabolized in phase I and II reactions | Isoorientin-sulfate; also recorded: Hydroxy-luteolin-glucuronide; also recorded: Hydroxy-methoxy-isoorientin | Isoorientin-sulfate; also recorded: Hydroxy-methoxy-isoorientin | Isoorientin-sulfate; also recorded: Hydroxy-methoxy-isoorientin | Methoxy-isoorientin-sulfate; also recorded: Hydroxy-luteolin-glucuronide; also recorded: Methoxy-luteolin; also recorded: Hydroxy-methoxy-isoorientin | Isoorientin-sulfate; also recorded: Hydroxy-methoxy-isoorientin | Isoorientin-sulfate; also recorded: Methoxy-isoorientin | Hydroxy-isoorientin; also recorded: Methoxy-isoorientin-sulfate; also recorded: Hydroxy-luteolin-glucuronide | Isoorientin-sulfate | Isoorientin-sulfate; also recorded: Methoxy-isoorientin | – | –
2 | O=c1cc(-c2ccc(O)cc2)oc2c([C@@H]3O[C@H](CO)[C@@H](O)[C@H](O)[C@H]3O)c(O)c([C@@H]3OC[C@H](O)[C@H](O)[C@H]3O)c(O)c12 [IS, isoschaftoside] | approximately 100% | no significant effects at any concentration | very limited metabolism | – | a few hydroxylated and methoxylated derivatives | – | – | – | poorly metabolized in phase I and II reactions | – | – | – | Methoxy-isoschaftoside | – | – | – | – | – | No phase II conjugates containing glucuronic acid or sulfates were detectable | lacked the presence of phase II metabolites with glucuronic acid or sulfates
